Data on 14 compounds can be found in ChEMBL document CHEMBL5137058, “Therapeutic Strategies to Target the Androgen Receptor” (J Med Chem, 2022).

A short description of series [1]: In vivo agonist activity at Androgen receptor in male rat assessed as increase in prostate weight at 0.1 mg/kg, po administered for 14 days. In kind it is functional. The conditions noted are these: time 14 day.
Series [2] can be described thus: In vivo agonist activity at Androgen receptor in male rat assessed as increase in levator ani muscle weight at 0.1 mg/kg, po administered for 14 days. In kind it is functional. The conditions noted are these: time 14 day.
Series [3] is described as follows: Oral bioavailability in mouse. In kind it is ADME, organism-based. The conditions noted are these: in vivo.
The test system of the next series is VCaP. In words: Antiproliferative activity against human VCaP cells. The format is functional, cell-based.
For series [4], the system named is LNCaP. In words: Antitumor activity against human LNCaP cells expressing Androgen receptor F877L mutant xenografted in mouse assessed as tumor growth inhibition at 30 mg/kg, po administered daily. The format is functional. Conditions: read-out: TGI. On the technique in general: A xenograft is tissue or cells of one species grown in another, often human tumour cells in immunodeficient mice.

In series [5] the target is T1, Androgen receptor (Homo sapiens, UniProt P10275).
T1 sequence (P10275 whole entry): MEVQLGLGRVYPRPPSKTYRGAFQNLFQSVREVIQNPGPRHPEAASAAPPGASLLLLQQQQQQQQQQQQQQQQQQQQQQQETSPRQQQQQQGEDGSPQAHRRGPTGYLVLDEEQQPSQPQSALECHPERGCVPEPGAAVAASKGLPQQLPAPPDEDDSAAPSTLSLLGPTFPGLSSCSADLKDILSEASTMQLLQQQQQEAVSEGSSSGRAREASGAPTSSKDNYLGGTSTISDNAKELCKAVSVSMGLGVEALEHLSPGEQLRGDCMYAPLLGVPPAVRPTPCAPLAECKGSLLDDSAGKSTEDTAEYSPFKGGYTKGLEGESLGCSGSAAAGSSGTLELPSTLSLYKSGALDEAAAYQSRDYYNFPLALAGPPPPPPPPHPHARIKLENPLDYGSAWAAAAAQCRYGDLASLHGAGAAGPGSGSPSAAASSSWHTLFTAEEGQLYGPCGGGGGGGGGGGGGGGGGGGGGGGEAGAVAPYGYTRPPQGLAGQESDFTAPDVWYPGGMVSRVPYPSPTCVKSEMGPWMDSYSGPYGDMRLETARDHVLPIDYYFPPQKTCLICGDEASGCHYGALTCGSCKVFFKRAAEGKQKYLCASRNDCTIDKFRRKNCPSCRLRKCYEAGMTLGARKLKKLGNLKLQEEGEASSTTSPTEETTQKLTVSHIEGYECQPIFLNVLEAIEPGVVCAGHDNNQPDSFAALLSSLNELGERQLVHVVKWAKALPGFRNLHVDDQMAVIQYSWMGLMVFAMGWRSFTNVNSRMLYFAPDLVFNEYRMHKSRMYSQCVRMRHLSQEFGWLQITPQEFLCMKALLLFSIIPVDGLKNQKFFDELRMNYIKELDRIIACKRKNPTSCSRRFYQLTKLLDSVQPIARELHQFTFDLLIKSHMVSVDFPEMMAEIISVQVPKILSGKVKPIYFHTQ
In kind it is cell-based, LNCaP C4-2.
Description: Antagonist activity at Androgen receptor in human LNCaP C4-2 cells transfected with PSA6.1-luc and pRL-TK measured by luciferase gene reporter assay

The test system of series [6] is LNCaP. In words: Antiproliferative activity against human LNCaP cells expressing Androgen receptor […] mutant. The format is functional, cell-based.
Another series relates to PC-3. In words: Antiproliferative activity against androgen-independent human PC-3 cells. In kind it is functional, cell-based.
The test system of another series is CWR22R. In words: Antiproliferative activity against human 22Rv1 cells expressing Androgen receptor H874Y mutant. The format is functional, cell-based.
The test system of a further series is SC-3. In words: Antiproliferative activity against mouse SC-3 cells. The format is functional, cell-based.
The target of series [7] is T2, Androgen receptor (Homo sapiens) (UniProt P10275).
T2 sequence (whole entry): T1 sequence (P10275 whole entry)
In words: Displacement of [3H]DHT from Androgen receptor (unknown origin) relative to control. Conditions: filed as antagonist.

The target of series [8] is T1, Androgen receptor. In words: Antagonist activity at Androgen receptor (unknown origin) in African green monkey COS-1 cells. In kind it is cell-based.
Series [9] addresses T1, Androgen receptor. In words: Agonist activity at Androgen receptor in human 22Rv1 cells cotransfected with pARE-LUC measured by luciferase assay. In kind it is cell-based.
Series [10] addresses T1, Androgen receptor.
Description: Antagonist activity at Androgen receptor in human LNCaP cells assessed as inhibition of PSA expression
Series [11] in a line: Antitumor activity against bicalutamide-resistant human LNCaP-cxD2 cells xenografted in mouse at 40 mg/kg, po administered for 28 days. Conditions: time 28 day. The format is functional.
Series [12] in a line: In vivo agonist activity at Androgen receptor in rat assessed as increase in levator ani muscle weight administered orally for 14 days. In kind it is functional. The conditions noted are these: 336 h, route po, time 14 day.
A short description of series [13]: Half-life in plasma of rat. The format is ADME.
In series [14] the target is T1, Androgen receptor. In words: Binding affinity to Androgen receptor (unknown origin). Conditions: read-out: IC50.
For series [15], the target named is T1, Androgen receptor. In words: Agonist activity at Androgen receptor (unknown origin) measured by androgen response element luciferase assay.
In series [16] the target is T1, Androgen receptor. In words: Antagonist activity at Androgen receptor in human MDA-MB-453 cells measured by SEAP reporter gene assay. The format is cell-based. In general terms: In a reporter assay the amount or activity of a reporter protein is the signal.
The target in series [17] is T1, Androgen receptor. In words: Displacement of [3H]DHT from Androgen receptor expressed in human MDA-MB-453 cells. The format is cell-based. In general terms: Loss of bound radioactivity is the signal in a displacement assay; it reports binding, not function.
The next series concerns Rattus norvegicus. In words: Antagonist activity in mature male Sprague-Dawley rat assessed as decrease in seminal vesicle and prostate weight at 15 mg/kg, po administered once a day for 14 days. The format is functional. Also noted: scale not given: the % may be the effect or the level left. Conditions: time 14 day.
Series [18] can be described thus: Oral bioavailability in dog. In kind it is ADME, organism-based, Canis lupus familiaris. The conditions noted are these: in vivo.
In series [19] the target is T1, Androgen receptor. In words: Antagonist activity at Androgen receptor (unknown origin) assessed as downregulation of AR.
Series [20] can be described thus: In vivo agonist activity at Androgen receptor in castrated male rat assessed as increase in prostate weight at 0.76 mg administered orally per day. In kind it is functional. The conditions noted are these: route po.
Series [21] is described as follows: In vivo agonist activity at Androgen receptor in castrated rat assessed as increase in levator ani muscle weight at 0.11 mg administered orally per day for 14 days. In kind it is functional. Conditions: route po, time 14 day.
Series [22] has as its target T1, Androgen receptor. In words: Binding affinity to human Androgen receptor measured by fluorescence polarization assay.

Some results are limits rather than exact numbers.

Turning to `Cc1c(/N=C2\O[C@@H](C(F)(F)F)[C@@H]3[C@@H](O)CCN23)ccc(C#N)c1Cl`, the Activity in series [1] and in series [2] was 100% in each case.

`N#Cc1ncc(N2C(=O)C3(CCC3)N(c3ccc(OC4CCNCC4)nc3)C2=S)cc1C(F)(F)F` [TRC-253] displayed a bioavailability in series [3] of 45%. The compound also had an IC50 in the series on VCaP of 290 nM. Further, the inhibition in vivo at 30 mg/kg in the series on LNCaP [4] came out at 87%.

For `Cc1ccc(Cl)cc1N1CCN(C(=O)[C@@H]2C[C@@H]2c2ccc(F)cc2)CC1`, on Androgen receptor [5], the EC50 came to 1700 nM.

Regarding `COc1cccc(C(=O)Nc2ccc(Oc3ccc(O)cc3)c(C)c2)c1`, the IC50 in the series with LNCaP [6] is 43 nM; with PC-3 it was above 10000 nM; in the series with CWR22R, 220 nM; in the series on SC-3 it was 750 nM.

`N#Cc1ccc(C2=NO[C@H]3CCCC[C@@H]23)cc1C(F)(F)F` yielded an Activity in series [7] of 99.2%. In addition, the IC50 on Androgen receptor [8] is 27.5 nM.

Regarding `CCCN(CC(F)(F)F)c1cc(Br)c(C#N)s1`, the IC50 on Androgen receptor [9] is 10 nM.

Turning to `NS(=O)(=O)c1cccc2cc(SCCOc3ccccc3)[nH]c12`, on Androgen receptor [10], it took 530 nM to reach half-maximal inhibition (IC50).

As for `Cc1nn(-c2ccc(C#N)c(Cl)c2)c(C)c1Cc1ccc(C(=O)NCC(C)(C)O)cc1`, the T/C in series [11] is 23%.

Turning to `CC[C@H]1[C@@H]2[C@@H](O)CCN2C(=O)N1c1ccc(C#N)c(Cl)c1C`, the ED50 in series [12] came to 0.09 mg/kg. The half-life in series [13] was 5.5 h.

As to `C[C@](O)(CCOc1ccc(F)cc1)C(=O)N1CCc2c(C#N)cccc21`, the concentration for half-maximal inhibition (IC50) at Androgen receptor [14] was determined as 12.7 nM. The concentration for a half-maximal effect (EC50) at Androgen receptor [15] was found to be 2.5 nM.

As for `CNC(=O)[C@]12C(=O)N(c3ccc(C#N)c(C(F)(F)F)c3)C(=O)[C@H]1[C@H]1C[C@H](F)[C@@H]2C1`, at Androgen receptor [16], the 50% inhibitory concentration (IC50) was determined as 91 nM. Also, at Androgen receptor [17], the Ki was determined as 8 nM. The Activity in the series on Rattus norvegicus stood at 35%.

Consider `CC(=O)N1CCN(CCOc2ccc(C3CCN(C4=Nn5c(nnc5C(F)(F)F)CC4)CC3)cc2)CC1` [AZD3514], for which, in series [18], the bioavailability was found to be 75%. For the same compound, on Androgen receptor [19], the IC50 was above 1780 nM.

For the compound `C[C@@]1(C(=O)Nc2ccc(C#N)c(C(F)(F)F)c2)CC(C(F)(F)F)=NN1`, the Activity turned out to be 51% in series [20] and 90% in [21].

On Androgen receptor [22], `Cc1c(N[C@@H](c2ccc(-c3ccc(C#N)cc3)o2)[C@H](C)O)ccc(C#N)c1Cl` returned an inhibition constant Ki of 7 nM.

By bioavailability is commonly meant dose-corrected exposure relative to a reference, in per cent. A word on the IC50: it is the concentration that inhibits the measured activity by half. By EC50 is commonly meant the midpoint of the concentration-response curve. A word on the T/C: it is the ratio of treated to control. By ED50 is commonly meant the dose at which the effect has come halfway, by size or by number of responders. For orientation: half-life means the time in which the quantity being followed falls by half. Usually Ki stands for the dissociation constant of the complex between target and ligand, obtained from inhibition or displacement.
